Test results taken from patent US12391679B2, “Benzamide-substituted bicyclic imidazo- and pyrazolo-fused -pyridine, -pyrimide, and -pyridazine compounds for treatment of inflammatory diseases” (ONCO3R Therapeutics BV, priority 2019, dated 2025).
pIC50: −log10 of the molar value.

How the values were obtained:
Assay type in all cases: biochemical
SIK1 = molecular target: T1, SIK1 (Homo sapiens, UniProt P57059); assay: ADP-Glo kinase assay, SIK1
T1 construct: purchased Carna Biosciences 02-131
How it was run: (§1)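 Luminescent ADP-formation read-out: enzyme–substrate mix + ATP, 120 min RT; ATP depletion 40 min RT; ADP→ATP conversion with luciferase/luciferin 30 min RT. Controls: 1% DMSO (negative), 10 μM staurosporine final (positive).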

SIK2 = molecular target: T2, SIK2 (Homo sapiens, UniProt Q9H0K1); assay: ADP-Glo kinase assay, SIK2
T2 construct: purchased ThermoFisher Scientific PV4792
How it was run: as §1

SIK3 = molecular target: T3, SIK3 (Homo sapiens, UniProt Q9Y2K2); assay: ADP-Glo kinase assay, SIK3
T3 construct: purchased SignalChem S12-11G-100
How it was run: as §1

T1 sequence (P57059 whole entry): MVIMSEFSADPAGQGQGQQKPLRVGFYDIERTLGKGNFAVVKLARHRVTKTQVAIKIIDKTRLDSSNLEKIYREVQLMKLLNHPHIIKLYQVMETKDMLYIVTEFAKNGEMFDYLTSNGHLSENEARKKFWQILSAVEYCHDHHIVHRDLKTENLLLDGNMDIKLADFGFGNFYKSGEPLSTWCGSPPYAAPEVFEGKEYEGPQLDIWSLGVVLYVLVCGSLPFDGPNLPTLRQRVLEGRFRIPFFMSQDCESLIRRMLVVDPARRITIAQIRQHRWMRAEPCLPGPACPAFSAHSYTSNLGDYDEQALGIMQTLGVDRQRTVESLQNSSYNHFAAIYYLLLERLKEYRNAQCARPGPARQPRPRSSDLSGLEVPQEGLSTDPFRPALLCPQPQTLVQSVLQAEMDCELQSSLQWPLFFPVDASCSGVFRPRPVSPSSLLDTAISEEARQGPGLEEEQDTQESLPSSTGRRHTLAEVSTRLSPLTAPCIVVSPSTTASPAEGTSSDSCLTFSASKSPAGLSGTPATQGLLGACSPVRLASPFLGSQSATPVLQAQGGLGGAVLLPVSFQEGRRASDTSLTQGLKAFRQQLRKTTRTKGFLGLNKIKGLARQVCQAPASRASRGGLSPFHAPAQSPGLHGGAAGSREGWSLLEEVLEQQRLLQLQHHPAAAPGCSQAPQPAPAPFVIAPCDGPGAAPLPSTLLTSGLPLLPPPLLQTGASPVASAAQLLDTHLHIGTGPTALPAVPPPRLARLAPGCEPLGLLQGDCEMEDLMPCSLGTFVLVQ
T2 sequence (Q9H0K1 whole entry): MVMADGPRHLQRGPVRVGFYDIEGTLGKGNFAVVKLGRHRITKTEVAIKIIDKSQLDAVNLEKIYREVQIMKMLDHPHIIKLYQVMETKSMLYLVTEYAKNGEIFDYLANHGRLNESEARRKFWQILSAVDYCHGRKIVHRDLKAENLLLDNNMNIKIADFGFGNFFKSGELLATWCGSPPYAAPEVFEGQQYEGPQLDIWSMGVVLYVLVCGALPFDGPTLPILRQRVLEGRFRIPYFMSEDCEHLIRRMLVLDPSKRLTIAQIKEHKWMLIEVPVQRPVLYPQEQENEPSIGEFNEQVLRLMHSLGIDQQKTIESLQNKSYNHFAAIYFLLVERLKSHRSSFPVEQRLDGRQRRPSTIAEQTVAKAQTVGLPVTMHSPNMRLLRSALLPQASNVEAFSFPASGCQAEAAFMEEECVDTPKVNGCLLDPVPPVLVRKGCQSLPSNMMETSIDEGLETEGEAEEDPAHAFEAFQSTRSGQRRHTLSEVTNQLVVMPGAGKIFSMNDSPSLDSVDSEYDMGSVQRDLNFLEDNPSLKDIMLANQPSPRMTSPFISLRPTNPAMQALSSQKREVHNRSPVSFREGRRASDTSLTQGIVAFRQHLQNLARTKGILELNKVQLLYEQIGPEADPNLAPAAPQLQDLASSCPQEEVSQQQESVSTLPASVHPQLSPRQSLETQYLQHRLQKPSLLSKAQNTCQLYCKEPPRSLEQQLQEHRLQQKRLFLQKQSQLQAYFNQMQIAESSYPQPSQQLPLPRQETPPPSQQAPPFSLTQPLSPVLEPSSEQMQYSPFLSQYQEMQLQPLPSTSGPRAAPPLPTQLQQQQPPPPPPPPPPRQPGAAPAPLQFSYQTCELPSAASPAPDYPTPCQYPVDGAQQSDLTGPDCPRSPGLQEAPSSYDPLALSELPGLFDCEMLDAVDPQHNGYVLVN
T3 sequence (Q9Y2K2 59-365 limits assumed): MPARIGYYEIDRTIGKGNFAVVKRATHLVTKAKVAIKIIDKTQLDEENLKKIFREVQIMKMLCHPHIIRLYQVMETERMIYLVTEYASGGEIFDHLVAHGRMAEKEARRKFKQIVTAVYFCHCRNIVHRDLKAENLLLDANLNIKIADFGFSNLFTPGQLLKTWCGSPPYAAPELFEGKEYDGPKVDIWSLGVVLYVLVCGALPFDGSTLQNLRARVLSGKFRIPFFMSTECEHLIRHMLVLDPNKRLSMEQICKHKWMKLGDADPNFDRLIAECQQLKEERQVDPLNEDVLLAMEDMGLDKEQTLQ

Row | SMILES | pIC50 (SIK1) | pIC50 (SIK2) | pIC50 (SIK3)
1 | COc1cc(-c2cnc3cc(C4CCCNC4)ccn23)cc(OC(F)F)c1C(=O)NC1CC1 (stereo not drawn) [Cpd 65, N-cyclopropyl-2-(difluoromethoxy)-6-methoxy-4-[7-(3-piperidyl)imidazo[1,2-a]pyridin-3-yl]benzamide] | < 6.30 | 7.00 to 8.00 | 8.00 to 11.00
2 | COc1cc(-c2cnc3cc(C4CCOCC4)ccn23)cc(OC(F)F)c1C(=O)NC1CC1 [Cpd 108, N-cyclopropyl-2-(difluoromethoxy)-6-methoxy-4-(7-tetrahydropyran-4-ylimidazo[1,2-a]pyridin-3-yl)benzamide] | 6.30 to 7.00 | 7.00 to 8.00 | 8.00 to 11.00
3 | COc1cc(-c2cnc3cc(C(C)N4CC(O)C4)ccn23)cc(OC(F)F)c1C(=O)NC1CC1 (stereo not drawn) [Cpd 155, N-cyclopropyl-2-(difluoromethoxy)-4-[7-[1-(3-hydroxyazetidin-1-yl)ethyl]imidazo[1,2-a]pyridin-3-yl]-6-methoxy-benzamide] | < 6.30 | < 6.30 | 7.00 to 8.00
4 | COc1cc(-c2cnc3cc(C(C)(C)C#N)ccn23)cc(OC(F)F)c1C(=O)N1CCC1C (stereo not drawn) [Cpd 104, 2-[3-[3-(difluoromethoxy)-5-methoxy-4-(2-methylazetidine-1-carbonyl)phenyl]imidazo[1,2-a]pyridin-7-yl]-2-methyl-propanenitrile] | < 6.30 | < 6.30 | < 6.30
5 | COc1cc(-c2cnc3cc(C(C)(C)C#N)ccn23)cc(OC(F)F)c1C(=O)N1CCC(OC)CC1 [Cpd 46, 2-[3-[3-(difluoromethoxy)-5-methoxy-4-(4-methoxypiperidine-1-carbonyl)phenyl]imidazo[1,2-a]pyridin-7-yl]-2-methyl-propanenitrile] | < 6.30 | < 6.30 | < 6.30
6 | COc1cc(-c2cnn3cc(C(C)(C)C#N)ccc23)cc(OC)c1C(=O)NC1CC1 [Cpd 259, 4-[6-(1-cyano-1-methyl-ethyl)pyrazolo[1,5-a]pyridin-3-yl]-N-cyclopropyl-2,6-dimethoxy-benzamide] | < 6.30 | < 6.30 | 7.00 to 8.00
7 | COc1cc(-c2cnc3cc(C4(N5CCOCC5)COC4)ccn23)cc(OC(F)F)c1C(=O)NC1CC1 [Cpd 222, N-cyclopropyl-2-(difluoromethoxy)-6-methoxy-4-[7-(3-morpholinooxetan-3-yl)imidazo[1,2-a]pyridin-3-yl]benzamide] | < 6.30 | < 6.30 | 6.30 to 7.00
8 | COc1cc(-c2cnc3cc(C(C)(C)C#N)ccn23)cc(OC(F)F)c1C(=O)N1CCOCC1 [Cpd 48, 2-[3-[3-(difluoromethoxy)-5-methoxy-4-(morpholine-4-carbonyl)phenyl]imidazo[1,2-a]pyridin-7-yl]-2-methyl-propanenitrile] | < 6.30 | < 6.30 | < 6.30
9 | COc1cc(-c2cnc3cc(C4CN(C(=O)OC(C)(C)C)C4)c(F)cn23)cc(OC(F)F)c1C(=O)NC1CC1 [Cpd 158, tert-butyl 3-[3-[4-(cyclopropylcarbamoyl)-3-(difluoromethoxy)-5-methoxy-phenyl]-6-fluoro-imidazo[1,2-a]pyridin-7-yl]azetidine-1-carboxylate] | 6.30 to 7.00 | 6.30 to 7.00 | 7.00 to 8.00
10 | COc1cc(-c2cnc3cc(C4(C(=O)N5CCOCC5)CC4)ccn23)cc(OC(F)F)c1C(=O)NC1CC1 [Cpd 141, N-cyclopropyl-2-(difluoromethoxy)-6-methoxy-4-[7-[1-(morpholine-4-carbonyl)cyclopropyl]imidazo[1,2-a]pyridin-3-yl]benzamide] | < 6.30 | < 6.30 | 6.30 to 7.00
11 | COc1cc(-c2cnc3cc(C(C)(C)C#N)ccn23)cc(OC(F)F)c1C(=O)N(C)C1CC1 [Cpd 84, 4-[7-(1-cyano-1-methyl-ethyl)imidazo[1,2-a]pyridin-3-yl]-N-cyclopropyl-2-(difluoromethoxy)-6-methoxy-N-methyl-benzamide] | < 6.30 | < 6.30 | 6.30 to 7.00
12 | COc1cc(-c2cnc3cc(C(C)(C)C#N)ccn23)cc(OC(F)F)c1C(=O)N(C)CC1CC1 [Cpd 82, 4-[7-(1-cyano-1-methyl-ethyl)imidazo[1,2-a]pyridin-3-yl]-N-(cyclopropylmethyl)-2-(difluoromethoxy)-6-methoxy-N-methyl-benzamide] | < 6.30 | < 6.30 | < 6.30
13 | COc1cc(-c2cnc3cc(C(C)(C)C#N)ccn23)cc(OC(F)F)c1C(=O)NC1COC1 [Cpd 43, 4-[7-(1-cyano-1-methyl-ethyl)imidazo[1,2-a]pyridin-3-yl]-2-(difluoromethoxy)-6-methoxy-N-(oxetan-3-yl)benzamide] | < 6.30 | < 6.30 | 7.00 to 8.00
14 | COc1cc(-c2cnc3cc(C(C)(C)C#N)ccn23)cc(OC(F)F)c1C(=O)NC1(C(C)C)CC1 [Cpd 80, 4-[7-(1-cyano-1-methyl-ethyl)imidazo[1,2-a]pyridin-3-yl]-2-(difluoromethoxy)-N-(1-isopropylcyclopropyl)-6-methoxy-benzamide] | < 6.30 | < 6.30 | < 6.30
15 | COc1cc(-c2cnn3cc(C4(C(=O)N5CCOCC5)CCC4)ccc23)cc(OC(F)F)c1C(=O)N[C@@H]1C[C@@H]1F [Cpd 274, 2-(difluoromethoxy)-N-[(1R,2S)-2-fluorocyclopropyl]-6-methoxy-4-[6-[1-(morpholine-4-carbonyl)cyclobutyl]pyrazolo[1,5-a]pyridin-3-yl]benzamide] | < 6.30 | < 6.30 | 6.30 to 7.00
16 | CCC(O)(CC)c1ccn2c(-c3cc(OC)c(C(=O)NC4CC4)c(OC(F)F)c3)cnc2c1 [Cpd 124, N-cyclopropyl-2-(difluoromethoxy)-4-[7-(1-ethyl-1-hydroxy-propyl)imidazo[1,2-a]pyridin-3-yl]-6-methoxy-benzamide] | < 6.30 | < 6.30 | 6.30 to 7.00
17 | COc1cc(-c2cnc3cc(C(C)(C)N4CCOCC4)ccn23)cc(OC(F)F)c1C(=O)NC1CC1 [Cpd 226, N-cyclopropyl-2-(difluoromethoxy)-6-methoxy-4-[7-(1-methyl-1-morpholino-ethyl)imidazo[1,2-a]pyridin-3-yl]benzamide] | < 6.30 | < 6.30 | 7.00 to 8.00
18 | COc1cc(-c2cnc3cc(C(C)(C)C#N)ccn23)cnc1C(=O)NCC(F)(F)F [Cpd 127, 5-[7-(1-cyano-1-methyl-ethyl)imidazo[1,2-a]pyridin-3-yl]-3-methoxy-N-(2,2,2-trifluoroethyl)pyridine-2-carboxamide] | < 6.30 | < 6.30 | 6.30 to 7.00
19 | COc1cn2c(-c3cc(OC)c(C(=O)NC4CC4)c(OC(F)F)c3)cnc2cc1C1COC1 [Cpd 215, N-cyclopropyl-2-(difluoromethoxy)-6-methoxy-4-[6-methoxy-7-(oxetan-3-yl)imidazo[1,2-a]pyridin-3-yl]benzamide] | 6.30 to 7.00 | 6.30 to 7.00 | 7.00 to 8.00
20 | COc1cc(-c2cnc3cc(C4(Cl)COC4)ccn23)cc(OC(F)F)c1C(=O)NC1CC1 [Cpd 217, 4-[7-(3-chlorooxetan-3-yl)imidazo[1,2-a]pyridin-3-yl]-N-cyclopropyl-2-(difluoromethoxy)-6-methoxy-benzamide] | < 6.30 | 6.30 to 7.00 | 7.00 to 8.00
21 | COCC1(NC(=O)c2c(OC)cc(-c3cnc4cc(C(C)(C)C#N)ccn34)cc2OC(F)F)CC1 [Cpd 81, 4-[7-(1-cyano-1-methyl-ethyl)imidazo[1,2-a]pyridin-3-yl]-2-(difluoromethoxy)-6-methoxy-N-[1-(methoxymethyl)cyclopropyl]benzamide] | < 6.30 | < 6.30 | < 6.30
22 | CCC(CC)(OC)c1ccn2c(-c3cc(OC)c(C(=O)NC4CC4)c(OC(F)F)c3)cnc2c1 [Cpd 126, N-cyclopropyl-2-(difluoromethoxy)-4-[7-(1-ethyl-1-methoxy-propyl)imidazo[1,2-a]pyridin-3-yl]-6-methoxy-benzamide] | < 6.30 | < 6.30 | 7.00 to 8.00
23 | COc1cc(-c2cnc3cc(C4(C)COCCO4)ccn23)cc(OC(F)F)c1C(=O)NC1CC1 (stereo not drawn) [Cpd 220, N-cyclopropyl-2-(difluoromethoxy)-6-methoxy-4-[7-(2-methyl-1,4-dioxan-2-yl)imidazo[1,2-a]pyridin-3-yl]benzamide] | < 6.30 | < 6.30 | 7.00 to 8.00
24 | COc1cc(-c2cnc3cc(C(C)(C)C#N)ccn23)cc(OC(F)F)c1C(=O)NC1CCOC1 (stereo not drawn) [Cpd 86, 4-[7-(1-cyano-1-methyl-ethyl)imidazo[1,2-a]pyridin-3-yl]-2-(difluoromethoxy)-6-methoxy-N-tetrahydrofuran-3-yl-benzamide] | < 6.30 | < 6.30 | 7.00 to 8.00
25 | COc1cc(-c2cnc3cc(C(C)O)ccn23)cc(OC)c1C(=O)NCC(F)(F)F (stereo not drawn) [Cpd 54, 4-[7-(1-hydroxyethyl)imidazo[1,2-a]pyridin-3-yl]-2,6-dimethoxy-N-(2,2,2-trifluoroethyl)benzamide] | < 6.30 | < 6.30 | 7.00 to 8.00
26 | COc1cc(-c2cnc3cc(C(C)(C)C(C)=O)ccn23)cc(OC)c1C(=O)NCC(F)(F)F [Cpd 56, 4-[7-(1,1-dimethyl-2-oxo-propyl)imidazo[1,2-a]pyridin-3-yl]-2,6-dimethoxy-N-(2,2,2-trifluoroethyl)benzamide] | < 6.30 | < 6.30 | 7.00 to 8.00
27 | COc1cc(-c2cnc3cc(C(C)NC(C)C)ccn23)cc(OC(F)F)c1C(=O)NC1CC1 (stereo not drawn) [Cpd 149, N-cyclopropyl-2-(difluoromethoxy)-4-[7-[1-(isopropylamino)ethyl]imidazo[1,2-a]pyridin-3-yl]-6-methoxy-benzamide] | < 6.30 | < 6.30 | 7.00 to 8.00
